Measurements as given in the supplement of paper PMC10307832.

Columns and labels:
Assay in all cases: relative viability (nuclei count vs DMSO), 5 days (fraction); higher = more cells survive
[1] = compound: C1CC2=C(C1)C=C(C=C2)OC3=NC(=C4C(=N3)N(C=N4)CC5=CC=C(C=C5)C6=CC=CC=C6)N[C@@H](CC7=CC=CC=C7)CO [QS11] + COc1cccc2cc(-c3nc([C@H]4CC[C@H](C(=O)O)CC4)n4ncnc(N)c34)[nH]c12 [OSI-027] (partner 0.5 µM)
Summary of the method: (§1)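 Lung cancer cell lines were pin-tool dosed in 1536-well plates on the day after seeding, with either a lone drug or a fixed anchor-drug dose plus five library-drug doses (not always all listed) in √10 steps. Nuclei were counted on 4× images after 5 days. Relative viability is the ratio of treated-well to vehicle-well nuclei counts, with each value a median of duplicate plates.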

[2] = compound: C[As](C)SC[C@H](NC(=O)CC[C@H](N)C(=O)O)C(=O)NCC(=O)O [Darinaparsin] + N=C(N)NC(=N)NCCc1ccccc1 [Phenformin] (partner 250 µM)
Summary of the method: as §1

[3] = compound: CC1=C(C=C(C=C1)NC(=O)C2=CC(=CC=C2)C(C)(C)C#N)NC3=CC4=C(C=C3)N=CN(C4=O)C [AZ628] + NC(=O)Nc1cc(-c2cccc(F)c2)sc1C(=O)N[C@H]1CCCNC1 [AZD7762] (partner 0.2 µM)
Summary of the method: as §1

[4] = compound: C[As](C)SC[C@H](NC(=O)CC[C@H](N)C(=O)O)C(=O)NCC(=O)O [Darinaparsin] + COc1cccc2cc(-c3nc([C@H]4CC[C@H](C(=O)O)CC4)n4ncnc(N)c34)[nH]c12 [OSI-027] (partner 0.5 µM)
Summary of the method: as §1

| Cell Line | relative viability ([1]; first compound 0.08 µM) | relative viability ([1]; first compound 0.253 µM) | relative viability ([1]; first compound 0.8 µM) | relative viability ([1]; first compound 2.53 µM) | relative viability ([1]; first compound 8 µM) | relative viability ([2]; first compound 0.08 µM) | relative viability ([2]; first compound 0.8 µM) | relative viability ([2]; first compound 2.53 µM) | relative viability ([2]; first compound 8 µM) | relative viability ([3]; first compound 0.08 µM) | relative viability ([3]; first compound 0.253 µM) | relative viability ([3]; first compound 0.8 µM) | relative viability ([3]; first compound 2.53 µM) | relative viability ([3]; first compound 8 µM) | relative viability ([4]; first compound 0.08 µM) | relative viability ([4]; first compound 0.8 µM) | relative viability ([4]; first compound 2.53 µM) | relative viability ([4]; first compound 8 µM) |
| --- | --- | --- | --- | --- | --- | --- | --- | --- | --- | --- | --- | --- | --- | --- | --- | --- | --- | --- |
| HCC-15 | 0.641 | 0.674 | 0.646 | 0.665 | 0.475 | 0.642 | 0.481 | 0.353 | 0.61 | 1.16 | 1.07 | 1.08 | 1.01 | 0.894 | 0.737 | 0.59 | 0.694 | 0.707 |
| HCC-366 | 0.877 | 0.749 |  | 0.742 | 0.257 | 0.65 | 0.649 | 0.588 | 0.665 | 0.248 | 0.193 | 0.235 | 0.207 | 0.149 | 1.23 | 1.1 | 0.955 | 1.62 |
| BEN | 0.304 | 0.316 | 0.309 | 0.33 | 0.3 | 0.263 | 0.268 | 0.263 | 0.265 | 0.678 | 0.593 | 0.653 | 0.614 | 0.587 | 0.312 | 0.306 | 0.281 | 0.299 |
| NCI-H1993 | 0.582 | 0.674 | 0.547 | 0.538 | 0.5 | 0.523 | 0.441 | 0.524 | 0.508 | 0.855 | 0.546 | 0.53 | 0.556 | 0.571 | 0.542 | 0.527 | 0.493 | 0.551 |
| NCI-H2405 | 0.626 | 0.663 | 0.64 | 0.654 | 0.694 | 0.407 | 0.377 | 0.415 | 0.405 | 0.54 | 0.387 | 0.498 | 0.419 | 0.458 | 0.629 | 0.614 | 0.545 | 0.658 |
| NCI-H2126 | 0.685 | 0.697 | 0.727 | 0.653 | 0.646 | 0.521 | 0.511 | 0.524 | 0.556 | 1.08 | 0.945 | 0.775 | 1.01 | 0.984 | 0.726 | 0.764 | 0.635 | 0.639 |
| LK-2 | 0.181 | 0.238 | 0.188 | 0.212 | 0.22 | 0.399 |  | 0.346 | 0.429 | 0.526 | 0.354 | 0.273 | 0.357 | 0.259 | 0.188 | 0.19 | 0.181 | 0.199 |
| NCI-H1944 | 0.41 | 0.387 |  | 0.378 | 0.314 | 0.217 | 0.207 | 0.216 | 0.192 | 0.5 | 0.488 | 0.454 | 0.414 | 0.359 | 0.413 | 0.372 | 0.399 | 0.437 |
| PC-14 | 0.731 | 0.98 | 0.809 | 0.807 | 0.695 | 0.653 | 0.55 | 0.716 | 0.698 | 0.48 | 0.324 | 0.338 | 0.316 | 0.296 | 1.09 | 0.697 | 0.704 | 1.26 |
| LC-2-ad | 0.783 | 0.413 | 0.873 | 0.847 | 0.79 | 0.614 | 0.5 | 0.564 | 0.484 | 0.909 | 0.85 | 1.02 | 0.922 | 0.759 | 0.877 | 0.762 | 0.67 | 0.759 |
| 201T | 0.759 | 0.685 | 0.662 |  | 0.836 | 0.478 | 0.451 | 0.404 | 0.5 | 0.523 | 0.541 | 0.57 | 0.462 | 0.45 | 0.963 | 0.701 |  | 0.93 |
| HOP-62 | 0.879 | 0.845 | 0.811 | 0.65 | 0.837 | 0.964 | 0.759 | 0.494 | 0.8 | 0.831 | 0.555 | 0.613 | 0.479 | 0.297 | 0.958 | 0.852 | 0.694 | 0.855 |
| NCI-H1734 | 0.66 | 0.548 | 0.594 | 0.517 | 0.49 | 0.464 | 0.409 | 0.363 | 0.424 | 0.504 | 0.56 | 0.561 | 0.473 | 0.373 | 0.684 | 0.595 | 0.621 | 0.739 |
| EKVX | 0.644 | 0.635 |  | 0.596 | 0.693 | 0.244 | 0.24 | 0.228 | 0.243 | 0.71 | 0.755 | 0.558 | 0.704 | 0.64 | 0.723 | 0.604 | 0.752 | 0.833 |
| NCI-H1355 | 0.392 | 0.324 | 0.334 | 0.35 | 0.334 | 0.45 | 0.459 | 0.382 | 0.412 | 0.798 | 0.754 | 0.737 | 0.638 | 0.541 | 0.432 | 0.352 | 0.34 | 0.372 |
| H3255 | 0.593 | 0.675 |  | 0.558 | 0.608 | 0.381 | 0.384 | 0.363 | 0.332 | 0.852 | 0.726 | 0.806 | 1.01 | 0.684 | 0.607 | 0.543 | 0.618 | 0.547 |
| NCI-H23 | 0.626 | 0.516 | 0.52 | 0.453 | 0.305 | 0.935 | 0.839 | 0.86 | 0.842 | 0.226 | 0.23 | 0.151 | 0.184 | 0.146 | 0.668 | 0.579 | 0.669 | 0.606 |
| NCI-H1755 | 0.685 | 0.725 | 0.592 | 0.604 | 0.486 | 0.671 | 0.598 | 0.545 | 0.632 | 0.466 | 0.385 | 0.392 | 0.429 | 0.356 | 0.725 | 0.691 | 0.686 | 0.841 |
